Reference: the supplement of paper PMC9262897, “Low-cost anti-mycobacterial drug discovery using engineered E. coli” (Nature Communications, 2022)
± gives the standard deviation of the averaged measurements.

Columns and labels:
Experiment in all cases: growth (OD600 after 24 h); higher = more growth
[1] = tested on: Efflux+
Protocol: (§1)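 E. coli BW25113 ΔaraC (Efflux+) or efflux-pump deletion strains (ΔtolC ΔentC, ΔemrE, ΔmdtI, ΔyeeO, ΔmdtK, ΔmdtM) diluted 1:100 in M9-based medium with a drug dilution series. Growth is read as OD600 after 24 h; 3 biological replicates.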

[2] = tested on: ∆emrE
Protocol: as §1

[3] = tested on: ∆mdtI
Protocol: as §1

[4] = tested on: ∆mdtK
Protocol: as §1

[5] = tested on: ∆mdtM
Protocol: as §1

[6] = tested on: ∆tolC ∆entC
Protocol: as §1

[7] = tested on: ∆yeeO
Protocol: as §1

In the case of `CN(Cc1cc(Br)cc(Br)c1N)C1CCCCC1` [Bromhexine], the growth ([1]; drug 3 µM) is reported as 1.027 ± 0.0028, the growth ([1]; drug 6.25 µM) is reported as 0.989 ± 0.039 and the growth ([1]; drug 12.5 µM) is reported as 0.974 ± 0.015. For the same molecule, the growth ([1]; drug 25 µM) was 0.9831 ± 0.0073, the growth ([1]; drug 50 µM) was 1 ± 0.019 and the growth ([1]; drug 100 µM) was 0.998 ± 0.015. It also gave a growth ([2]; drug 3 µM) of 0.992 ± 0.12, a growth ([2]; drug 6.25 µM) of 1.08 ± 0.013 and a growth ([2]; drug 12.5 µM) of 1.06 ± 0.059. It also gave a growth ([2]; drug 25 µM) of 1.02 ± 0.012, a growth ([2]; drug 50 µM) of 1.02 ± 0.012 and a growth ([2]; drug 100 µM) of 1.04 ± 0.05. The growth ([3]; drug 3 µM) was 1.04 ± 0.013, the growth ([3]; drug 6.25 µM) was 1.01 ± 0.029 and the growth ([3]; drug 12.5 µM) was 0.992 ± 0.027. For the same molecule, the growth ([3]; drug 25 µM) was 0.996 ± 0.026, the growth ([3]; drug 50 µM) was 0.994 ± 0.024 and the growth ([3]; drug 100 µM) was 0.9907 ± 0.0066. For the same molecule, the growth ([4]; drug 3 µM) was 0.772 ± 0.028, the growth ([4]; drug 6.25 µM) was 0.792 ± 0.037 and the growth ([4]; drug 12.5 µM) was 0.762 ± 0.013. For the same molecule, the growth ([4]; drug 25 µM) was 0.737 ± 0.016, the growth ([4]; drug 50 µM) was 0.743 ± 0.017 and the growth ([4]; drug 100 µM) was 0.7706 ± 0.0068. For the same molecule, the growth ([5]; drug 3 µM) was 0.825 ± 0.019, the growth ([5]; drug 6.25 µM) was 0.819 ± 0.0087 and the growth ([5]; drug 12.5 µM) was 0.805 ± 0.015. It also gave a growth ([5]; drug 25 µM) of 0.8363 ± 0.0059, a growth ([5]; drug 50 µM) of 0.8474 ± 0.0022 and a growth ([5]; drug 100 µM) of 0.8478 ± 0.0051. For the same molecule, the growth ([6]; drug 3 µM) was 0.894 ± 0.032, the growth ([6]; drug 6.25 µM) was 0.989 ± 0.08 and the growth ([6]; drug 12.5 µM) was 0.94 ± 0.074. The growth ([6]; drug 25 µM) was 0.564 ± 0.044, the growth ([6]; drug 50 µM) was 0.05317 ± 0.00038 and the growth ([6]; drug 100 µM) was 0.0597 ± 0.0019. The growth ([7]; drug 3 µM) was 0.897 ± 0.031, the growth ([7]; drug 6.25 µM) was 0.881 ± 0.019 and the growth ([7]; drug 12.5 µM) was 0.881 ± 0.035. The growth ([7]; drug 25 µM) was 0.8876 ± 0.0046, the growth ([7]; drug 50 µM) was 0.905 ± 0.015 and the growth ([7]; drug 100 µM) was 0.917 ± 0.0091.

`Nc1nc2ccc(OC(F)(F)F)cc2s1` [Riluzole] gave a growth ([1]; drug 16 µM) of 1.09 ± 0.017, a growth ([1]; drug 31 µM) of 1.038 ± 0.0013 and a growth ([1]; drug 62 µM) of 0.997 ± 0.033. The growth ([1]; drug 125 µM) was 0.978 ± 0.019, the growth ([1]; drug 250 µM) was 0.973 ± 0.024 and the growth ([1]; drug 500 µM) was 0.74 ± 0.04. It also gave a growth ([2]; drug 16 µM) of 0.961 ± 0.026, a growth ([2]; drug 31 µM) of 1.06 ± 0.066 and a growth ([2]; drug 62 µM) of 1.08 ± 0.037. It also gave a growth ([2]; drug 125 µM) of 1.12 ± 0.039, a growth ([2]; drug 250 µM) of 1.09 ± 0.053 and a growth ([2]; drug 500 µM) of 0.8264 ± 0.0056. For the same molecule, the growth ([3]; drug 16 µM) was 1.06 ± 0.02, the growth ([3]; drug 31 µM) was 1.045 ± 0.0025 and the growth ([3]; drug 62 µM) was 1.01 ± 0.021. For the same molecule, the growth ([3]; drug 125 µM) was 0.981 ± 0.029, the growth ([3]; drug 250 µM) was 0.9767 ± 0.0089 and the growth ([3]; drug 500 µM) was 0.634 ± 0.072. The growth ([4]; drug 16 µM) was 0.831 ± 0.072, the growth ([4]; drug 31 µM) was 0.799 ± 0.032 and the growth ([4]; drug 62 µM) was 0.788 ± 0.016. The growth ([4]; drug 125 µM) was 0.749 ± 0.054, the growth ([4]; drug 250 µM) was 0.741 ± 0.017 and the growth ([4]; drug 500 µM) was 0.669 ± 0.011. For the same molecule, the growth ([5]; drug 16 µM) was 0.802 ± 0.01, the growth ([5]; drug 31 µM) was 0.79 ± 0.015 and the growth ([5]; drug 62 µM) was 0.776 ± 0.016. For the same molecule, the growth ([5]; drug 125 µM) was 0.74 ± 0.02, the growth ([5]; drug 250 µM) was 0.785 ± 0.043 and the growth ([5]; drug 500 µM) was 0.527 ± 0.042. For the same molecule, the growth ([6]; drug 16 µM) was 1.05 ± 0.014, the growth ([6]; drug 31 µM) was 1.09 ± 0.018 and the growth ([6]; drug 62 µM) was 1.02 ± 0.023. For the same molecule, the growth ([6]; drug 125 µM) was 0.97 ± 0.018, the growth ([6]; drug 250 µM) was 0.634 ± 0.019 and the growth ([6]; drug 500 µM) was 0.0507 ± 0.0015. It also gave a growth ([7]; drug 16 µM) of 0.958 ± 0.011, a growth ([7]; drug 31 µM) of 0.905 ± 0.046 and a growth ([7]; drug 62 µM) of 0.851 ± 0.057. The growth ([7]; drug 125 µM) was 0.909 ± 0.018, the growth ([7]; drug 250 µM) was 0.857 ± 0.035 and the growth ([7]; drug 500 µM) was 0.703 ± 0.019.

For `CC/C(=C(/CC)c1ccc(O)cc1)c1ccc(O)cc1` [Diethylstilbestrol], the growth ([1]; drug 0.5 µM) was 0.872 ± 0.15, the growth ([1]; drug 1.25 µM) was 1.04 ± 0.046 and the growth ([1]; drug 2.5 µM) was 1.03 ± 0.017. For the same molecule, the growth ([1]; drug 5 µM) was 1.07 ± 0.022, the growth ([1]; drug 10 µM) was 1.056 ± 0.0079 and the growth ([1]; drug 20 µM) was 1.06 ± 0.063. The growth ([2]; drug 0.5 µM) was 0.993 ± 0.022, the growth ([2]; drug 1.25 µM) was 0.978 ± 0.012 and the growth ([2]; drug 2.5 µM) was 0.977 ± 0.034. For the same molecule, the growth ([2]; drug 5 µM) was 1.01 ± 0.035, the growth ([2]; drug 10 µM) was 1.06 ± 0.02 and the growth ([2]; drug 20 µM) was 1.08 ± 0.028. It also gave a growth ([3]; drug 0.5 µM) of 0.863 ± 0.16, a growth ([3]; drug 1.25 µM) of 0.979 ± 0.022 and a growth ([3]; drug 2.5 µM) of 0.976 ± 0.031. The growth ([3]; drug 5 µM) was 0.9841 ± 0.0028, the growth ([3]; drug 10 µM) was 1.02 ± 0.017 and the growth ([3]; drug 20 µM) was 0.948 ± 0.055. The growth ([4]; drug 0.5 µM) was 0.717 ± 0.032, the growth ([4]; drug 1.25 µM) was 0.754 ± 0.083 and the growth ([4]; drug 2.5 µM) was 0.881 ± 0.028. For the same molecule, the growth ([4]; drug 5 µM) was 0.786 ± 0.073, the growth ([4]; drug 10 µM) was 0.84 ± 0.12 and the growth ([4]; drug 20 µM) was 0.713 ± 0.032. For the same molecule, the growth ([5]; drug 0.5 µM) was 0.7859 ± 0.0033, the growth ([5]; drug 1.25 µM) was 0.8345 ± 0.0046 and the growth ([5]; drug 2.5 µM) was 0.903 ± 0.0068. It also gave a growth ([5]; drug 5 µM) of 0.956 ± 0.014, a growth ([5]; drug 10 µM) of 0.9842 ± 0.0088 and a growth ([5]; drug 20 µM) of 1.05 ± 0.019. It also gave a growth ([6]; drug 0.5 µM) of 0.995 ± 0.024, a growth ([6]; drug 1.25 µM) of 1.04 ± 0.011 and a growth ([6]; drug 2.5 µM) of 1.03 ± 0.0052. The growth ([6]; drug 5 µM) was 0.761 ± 0.037, the growth ([6]; drug 10 µM) was 0.0999 ± 0.018 and the growth ([6]; drug 20 µM) was 0.0484 ± 0.0012. The growth ([7]; drug 0.5 µM) was 0.983 ± 0.025, the growth ([7]; drug 1.25 µM) was 0.991 ± 0.018 and the growth ([7]; drug 2.5 µM) was 1.01 ± 0.019. It also gave a growth ([7]; drug 5 µM) of 1 ± 0.026, a growth ([7]; drug 10 µM) of 1.04 ± 0.011 and a growth ([7]; drug 20 µM) of 1.07 ± 0.027.
